The values below come from ChEMBL document CHEMBL1201862, “PubChem BioAssay data set” (2004).

Test in all cases: growth of human tumour cells (NCI), 48 h
For experiment [1], the system named is CAKI-1.
Experiment [2] relates to HCT-15.
In experiment [3] the test system is IGROV-1.
In experiment [4] the test system is LOX IMVI.
Experiment [5] has as its system K562.
Experiment [6] concerns M14.
For experiment [7], the system named is UACC-257.
Experiment [8] has as its system HCC 2998.
Experiment [9] has as its system MOLT-4.
Experiment [10] concerns SR.
Experiment [11] deals with NCI/ADR-RES.
The subject of experiment [12] is SK-MEL-28.
For experiment [13], the system named is SF-268.
Experiment [14] deals with MDA-N.
Experiment [15] concerns HT-29.
Experiment [16] concerns BT-549.
The test system of experiment [17] is NCI-H23.
For experiment [18], the system named is MCF7.
Experiment [19] relates to UO-31.
For experiment [20], the system named is EKVX.

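Method: 48-hour compound exposure of cells in 96-well plates, five concentrations, linear interpolation of endpoints. The concentration for 50% growth inhibition is given as GI50.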 Calls of active or inactive are those of the source. Cut-off read from the data, not from the text of the source: active = GI50 up to about 1.1 µM and inactive = higher.

For `COc1ccc(C2C(C#N)=C(S)N(C3OC(COC(C)=O)C(OC(C)=O)C(OC(C)=O)C3OC(C)=O)C(C)=C2C(C)=O)cc1` (configuration not stated), the GI50 in [1] is > 100 µM (inactive); in experiment [2], above 100 µM; in experiment [3] it was > 100 µM (inactive); in experiment [4], > 100 µM (inactive); in [5], 28.1 µM (inactive); in [6] it was 57 µM (inactive). Moreover, the GI50 is > 100 µM (inactive) in experiment [7]; > 100 µM (inactive) in [8]; 20.1 µM (inactive) in experiment [9]; 49.1 µM (inactive) in experiment [10]; > 100 µM (inactive) in experiment [11]; > 100 µM (inactive) in [12]. In addition, the GI50 in experiment [13] is > 100 µM (inactive); in [14] it was 46.1 µM (inactive); in experiment [15], 71.3 µM (inactive); in [16], 52.4 µM (inactive); in experiment [17], > 100 µM (inactive); in experiment [18], > 100 µM (inactive). The GI50 in experiment [19] is 81.8 µM (inactive).
In the case of `CN(C)Nc1cc(=O)[nH]c(=O)[nH]1`, the GI50 in experiment [20] was > 100 µM (inactive); in experiment [2], above 100 µM; in experiment [3] it was > 100 µM (inactive); in experiment [4], > 100 µM (inactive); in experiment [5], > 100 µM (inactive); in [6], > 100 µM (inactive). The GI50 in experiment [7], in experiment [8], in experiment [9], in [10], in experiment [11] and in experiment [12] was > 100 µM (inactive) throughout. The GI50 in [13], in experiment [14], in experiment [15], in experiment [16], in experiment [18] and in experiment [19] was > 100 µM (inactive) each time.
As for `OCCCN=C1CCCCC1`, the GI50 is > 100 µM (inactive) in experiment [20]; > 100 µM (inactive) in experiment [1]; above 100 µM in [2]; > 100 µM (inactive) in experiment [3]; > 100 µM (inactive) in [4]; > 100 µM (inactive) in experiment [5]. Further, the GI50 in experiment [6], in [7], in [9], in [10], in experiment [11] and in experiment [12] was > 100 µM (inactive) in each case. The GI50 in experiment [13], in experiment [14], in experiment [15], in [16], in experiment [17] and in experiment [18] was > 100 µM (inactive) in each case. In addition, in experiment [19], the GI50 is > 100 µM (inactive).
For `CN(C)C/C=C(/c1ccc(Br)cc1)c1cccnc1`, the GI50 in [20] was > 100 µM (inactive); in [1] it was 92.9 µM (inactive); in [2], above 100 µM; in experiment [3], > 100 µM (inactive); in experiment [5] it was 32.2 µM (inactive); in [6] it was 20.2 µM (inactive). The GI50 in [7] was 18.2 µM (inactive); in [8] it was 15.7 µM (inactive); in [9] it was 47.9 µM (inactive); in [10], 34.8 µM (inactive); in experiment [11], 69.5 µM (inactive); in experiment [12] it was 17.9 µM (inactive). In addition, the GI50 in experiment [13] was 65.8 µM (inactive); in experiment [14], 38.3 µM (inactive); in experiment [15], 78.5 µM (inactive); in [16] it was 79.4 µM (inactive); in [17] it was > 100 µM (inactive); in experiment [18] it was 63.8 µM (inactive). Further, the GI50 in [19] was 42.8 µM (inactive).
As for `O=C(Nc1ccc(Br)c2ccccc12)c1ccc2ccccc2c1O`, the GI50 is 3.13 µM (inactive) in experiment [20]; 3.95 µM (inactive) in experiment [1]; 2.26 µM in experiment [2]; 2.9 µM (inactive) in experiment [3]; 2.55 µM (inactive) in experiment [5]; 4.63 µM (inactive) in experiment [6]. In addition, the GI50 is 1.95 µM (inactive) in [7]; 5.64 µM (inactive) in experiment [8]; 2.32 µM (inactive) in experiment [9]; 6.44 µM (inactive) in experiment [10]; 2.72 µM (inactive) in experiment [11]; 4.7 µM (inactive) in experiment [12]. For the same molecule, the GI50 is 3.87 µM (inactive) in experiment [13]; 1.7 µM (inactive) in experiment [14]; 3.67 µM (inactive) in experiment [15]; 2.83 µM (inactive) in experiment [16]; 1.9 µM (inactive) in experiment [17]; 2.73 µM (inactive) in [18]. In [19], the GI50 is 2.51 µM (inactive).
For `CCOC(=O)[C@@H]1C[C@@H]1c1ccc(O)c(O)c1`, the GI50 in experiment [20] is 38.6 µM (inactive); in experiment [1], 38.1 µM (inactive); in experiment [2], 45.5 µM; in experiment [3] it was 35.3 µM (inactive); in [5], 13.8 µM (inactive); in experiment [6], 11 µM (inactive). The GI50 in experiment [7] was 39.2 µM (inactive); in [8] it was 24.9 µM (inactive); in experiment [9], 6.18 µM (inactive); in experiment [10], 14.5 µM (inactive); in experiment [11], 46.6 µM (inactive); in experiment [12] it was 30.8 µM (inactive). Further, the GI50 was 30.8 µM (inactive) in experiment [13]; 17.1 µM (inactive) in experiment [14]; 50.2 µM (inactive) in experiment [15]; 19.7 µM (inactive) in experiment [16]; 43.4 µM (inactive) in experiment [17]; 16.9 µM (inactive) in experiment [18]. In experiment [19], the GI50 is 10.7 µM (inactive).
As to `Cc1ccc(-c2nc(-c3nccc4ccccc34)oc2-c2ccccc2)cc1`, the GI50 was 20.6 µM (inactive) in experiment [20]; 43.3 µM (inactive) in [1]; 22.9 µM in experiment [2]; > 100 µM (inactive) in experiment [3]; 20.3 µM (inactive) in [4]; 55.1 µM (inactive) in [5]. The GI50 in [6] is 24.9 µM (inactive); in experiment [7] it was 85.3 µM (inactive); in [9] it was 25.2 µM (inactive); in experiment [10], 25.8 µM (inactive); in experiment [11], 98.2 µM (inactive); in experiment [12], > 100 µM (inactive). The GI50 is 73.5 µM (inactive) in experiment [13]; 38.7 µM (inactive) in experiment [14]; 5.64 µM (inactive) in [15]; > 100 µM (inactive) in experiment [16]; > 100 µM (inactive) in experiment [17]; 27.9 µM (inactive) in experiment [18]. Moreover, the GI50 in experiment [19] is 95.9 µM (inactive).
On to `COc1ccc(NC(=O)CC(=O)N2N=C(N3CCCCC3)CC2c2ccccc2)cc1` (configuration not stated), for which the GI50 in experiment [20] was > 100 µM (inactive); in experiment [1], > 100 µM (inactive); in [2], above 100 µM; in [3], > 100 µM (inactive); in [4], > 100 µM (inactive); in experiment [6], > 100 µM (inactive). Besides, the GI50 in experiment [7], in experiment [8], in experiment [9], in experiment [10], in [11] and in experiment [12] was > 100 µM (inactive) each time. Besides, the GI50 in experiment [13], in [14], in experiment [15], in experiment [16], in [17] and in experiment [18] was > 100 µM (inactive) each time. Also, in [19], the GI50 was > 100 µM (inactive).
As for `NC(CCC(=O)c1ccccn1)C(=O)O` (configuration not stated), the GI50 in experiment [20] was > 100 µM (inactive); in experiment [1], > 100 µM (inactive); in experiment [2], above 100 µM; in experiment [3] it was > 100 µM (inactive); in experiment [4] it was > 100 µM (inactive); in experiment [6], > 100 µM (inactive). The GI50 in experiment [7], in experiment [8], in experiment [9], in experiment [10], in experiment [11] and in experiment [12] was > 100 µM (inactive) in each case. Moreover, the GI50 in experiment [13], in [14], in experiment [15], in experiment [16], in experiment [17] and in experiment [18] was > 100 µM (inactive) in each case. Moreover, the GI50 in experiment [19] was > 100 µM (inactive).
Consider `COC(=O)C(Cc1ccccc1)NP(=O)(O)OCC1OC(n2cc(Br)c(=O)[nH]c2=O)CC1O` (configuration not stated), for which the GI50 was > 100 µM (inactive) in [20]; above 100 µM in experiment [2]; > 100 µM (inactive) in [3]; > 100 µM (inactive) in [4]; > 100 µM (inactive) in experiment [5]; > 100 µM (inactive) in experiment [6]. The GI50 in experiment [7], in experiment [8], in [9], in experiment [10], in [11] and in experiment [12] was > 100 µM (inactive) throughout. In addition, the GI50 in [13], in experiment [14], in [15], in experiment [16], in [17] and in [18] was > 100 µM (inactive) each time. Further, the GI50 in experiment [19] is > 100 µM (inactive).
For the molecule `Cc1ccc(/N=N/C(=N/NC(=O)c2ccccc2)c2ccc(N(CCC#N)CCC#N)cc2C)cc1`, the GI50 was 63.4 µM (inactive) in experiment [20]; > 100 µM (inactive) in experiment [1]; 25.3 µM in experiment [2]; 29.3 µM (inactive) in experiment [3]; 8.05 µM (inactive) in experiment [5]; 78.2 µM (inactive) in experiment [6]. In addition, the GI50 in experiment [7] is 55 µM (inactive); in experiment [8], 24.9 µM (inactive); in experiment [9] it was 61.1 µM (inactive); in [10], 5.79 µM (inactive); in [11] it was > 100 µM (inactive); in [13], 41.9 µM (inactive). The GI50 in [14] is 3.97 µM (inactive); in experiment [15], 19 µM (inactive); in experiment [16], 48.3 µM (inactive); in [17], 52.6 µM (inactive); in [18], 21.3 µM (inactive); in experiment [19] it was > 100 µM (inactive).
